Results reported in patent US20200239962A1, “COMPOSITIONS AND METHODS FOR DETECTING A NEOPLASIA” (The Johns Hopkins University, priority 2010, published 2020).

System: BNC1 and ADAMTS1 gene expression in pancreatic cancer cell lines (Panc1, MIA-PaCa2, Capan1, PL45)
Assay: Quantitative RT-PCR re-expression of silenced BNC1 and ADAMTS1 after drug treatment
Assay type: cell-based, human
Conditions: 5 uM DAC or 300 nM TSA, relative to mock-treated cells; TSA result excepts PL45
Protocol: FIGS. 2A, 2B, and 2C depict promoter methylation gels and corresponding bar graphs, a CpG methylation diagram, and a schematic depicting methylation-on-bead (MOB) technology, respectively. […] M=methylation signal; U=unmethylated signal. IVD=in vitro methylated DNA. Real-time RT-PCR expression is shown as fold change ±SE relative to mock-treated cells during 5 uM 5-Aza-deoxycitidine (DAC) and 300 nM Trichostatin A (TSA) treatments. […] The BNC1 promoter regions is depicted as a line, with CpG regions designated as vertical slashes. TIS indicates the transcriptional start site. Location of CpG sites (bisulfite priners (BST): upstream region from −331 to +36 relative to transcriptional start site). […] Samples are analyzed using MS-qFRET or gel electrophoresis.
This genome-wide DNA hypermethylome screening is based on a pharmacological approach using 5-deoxy-azacytidineand TSA, which has shown an excellent correlation between promoter DNA methylation and inhibition of gene expression and re-expression after treatment with a DNA demethylating drug, such as 5-deoxy-azacytidine, in prior studies on breast and colorectal cancer. Here, promoter methylation of BNC1 and ADAMTS1 was tested, and correlated with a lack of gene expression in pancreatic cancer cell lines (Panc1, MIA-PaCa2, Capan1, and PL45) using quantitative RT-PCR (qRT-PCR) (FIG. 2A, upper panel). […]

Row | SMILES | re-expression of BNC1 and ADAMTS1 (qRT-PCR)
1 | Nc1ncn([C@H]2C[C@H](O)[C@@H](CO)O2)c(=O)n1 [5-deoxy-azacytidine] | significant re-expression
2 | CC(/C=C/C(=O)NO)=C\[C@@H](C)C(=O)c1ccc(N(C)C)cc1 [TSA, Trichostatin A] | minimal re-expression
